Experimental data published in US9617602B2, “Methods and compositions for determining resistance to androgen receptor therapy” (Aragon Pharmaceuticals, Inc., priority 2012, dated 2017).

Columns and labels:
Assay type in all cases: cell-based, human
LNCaP cells = test: Proliferation assay (CellTiter-Glo), agonist and antagonist mode
[1] = system: Class 1 resistant cell lines; test: Transcriptional reporter assay (probasin-luciferase)
Procedure: With the exception of the LNCaP/AR(cs)-Luc cells that contain an integrated androgen responsive reporter, cells were transiently transfected using Lipofectin® (Life Technologies) according to the manufacturer's protocol. […] Following transfection, the cells were incubated for 4 hours.
Following 48 hour incubation the medium was removed and the cells were lysed in 40 μL of lysis buffer (25 mM Tris Phosphate, 2 mM CDTA, 10% Glycerol, 0.5% Triton X-100, 2 mM DTT).

LNCaP/AR(cs) cells = test: Endogenous gene transcriptional assay (real-time PCR of androgen responsive genes)
Procedure: Total RNA was isolated using the Aurum™ total RNA isolation kit (BIO-RAD, Hercules, Calif.). RNA (1 μg) was reverse transcribed using the iScript cDNA synthesis kit (BIO-RAD, Hercules, Calif.) to produce cDNA. Real-time PCR was performed using the Applied Biosystems 7900HT instrument and SYBR Green PCR Master Mix (Applied Biosystems, Foster City, Calif.). PCR reactions were performed in 6 μL according to the manufacturer's protocol and a thermocycle protocol of 95° C. for 10 minutes followed by 40 cycles of 95° C. for 15 seconds and 58° C. for 1 minute. Androgen responsive gene (PSA, SLUG, TMPRSS2, STEAP4, FKBP5, ORM1, NOV, FASN, NKX3.1, AMIGO2, BDNF, CAMK2N1, HPGD, NCAPD3, PLD1) expression was normalized to GAPDH expression and expressed relative to vehicle treatment of the parental cell line.
Gene expression was normalized to GAPDH as described above.

[2] = Table 4A, 1 nM R1881 or 30 μM compound, vehicle=1.00

With `CNC(=O)c1ccc(N2C(=S)N(c3cnc(C#N)c(C(F)(F)F)c3)C(=O)C23CCC3)cc1F` [ARN-509] the viability at 0.0001 µM (LNCaP cells; Homo sapiens, 168 h, read-out: Antagonist Proliferation Assay (% Viability)) was less than 30%, the “Agonist Proliferation Assay (% Viability)” value (LNCaP cells; [Antagonists] = 10 μM, 7 days) was “+ (‘+’ = <30)” and the “Agonist Transcriptional Reporter Assay (% Max Activity)” value ([1]; Class 1, [Antagonists] = 50 μM) was “+ (‘+’ = <5)”. For the same compound, the “Antagonist Transcriptional Reporter Assay (% Max Activity)” value ([1]; Class 1, [Antagonists] = 50 μM in presence of R1881) was “++ (‘++’ = >5)”, the “Antagonist activity in probasin-luciferase reporter, Class 1 resistant cells” value ([1]; decrease in luciferase activity relative to no treatment controls) was “effective antagonists” and the “AMIGO2 expression, antagonist transcription” value (from here on “AMIGO2 expression”) (LNCaP/AR(cs) cells; +1 nM R1881, 0.3 μM) was 0.30. The “BDNF expression, antagonist transcription” value (“BDNF expression” below) (LNCaP/AR(cs) cells; +1 nM R1881, 0.3 μM) was 0.43, the “CAM2KN1 expression, antagonist transcription” value (“CAM2KN1 expression” for short) (LNCaP/AR(cs) cells; +1 nM R1881, 0.3 μM) was 0.04 and the “FASN expression, antagonist transcription” value (“FASN expression” for short) (LNCaP/AR(cs) cells; +1 nM R1881, 0.3 μM) was 1.92. The “FKBP5 expression, antagonist transcription” value (from here on “FKBP5 expression”) (LNCaP/AR(cs) cells; +1 nM R1881, 0.3 μM) was 33.14, the “HPGD expression, antagonist transcription” value (shortened to “HPGD expression”) (LNCaP/AR(cs) cells; +1 nM R1881, 0.3 μM) was 105.97 and the “NCAPD3 expression, antagonist transcription” value (shortened to “NCAPD3 expression”) (LNCaP/AR(cs) cells; +1 nM R1881, 0.3 μM) was 43.93. For the same compound, the “NKX3.1 expression, antagonist transcription” value (“NKX3.1 expression” for short) (LNCaP/AR(cs) cells; +1 nM R1881, 0.3 μM) was 8.32, the “NOV expression, antagonist transcription” value (LNCaP/AR(cs) cells; +1 nM R1881, 0.3 μM) was 0.03 and the “ORM1 expression, antagonist transcription” value (“ORM1 expression” below) (LNCaP/AR(cs) cells; +1 nM R1881, 0.3 μM) was 5100.90. For the same compound, the “PLD1 expression, antagonist transcription” value (“PLD1 expression” for short) (LNCaP/AR(cs) cells; +1 nM R1881, 0.3 μM) was 0.02, the “PSA expression, antagonist transcription” value (LNCaP/AR(cs) cells; +1 nM R1881, 0.3 μM) was 19.09 and the “SLUG expression, antagonist transcription” value (from here on “SLUG expression”) (LNCaP/AR(cs) cells; +1 nM R1881, 0.3 μM) was 71.33. For the same compound, the “STEAP4 expression, antagonist transcription” value (from here on “STEAP4 expression”) (LNCaP/AR(cs) cells; +1 nM R1881, 0.3 μM) was 1019.98, the “TMPRSS2 expression, antagonist transcription” value (“TMPRSS2 expression” below) (LNCaP/AR(cs) cells; +1 nM R1881, 0.3 μM) was 19.07 and the “AMIGO2 expression” value (LNCaP/AR(cs) cells; +1 nM R1881, 1 μM) was 0.31. The “BDNF expression” value (LNCaP/AR(cs) cells; +1 nM R1881, 1 μM) was 0.35, the “CAM2KN1 expression” value (LNCaP/AR(cs) cells; +1 nM R1881, 1 μM) was 0.06 and the “FASN expression” value (LNCaP/AR(cs) cells; +1 nM R1881, 1 μM) was 1.52. The “FKBP5 expression” value (LNCaP/AR(cs) cells; +1 nM R1881, 1 μM) was 22.49, the “HPGD expression” value (LNCaP/AR(cs) cells; +1 nM R1881, 1 μM) was 76.25 and the “NCAPD3 expression” value (LNCaP/AR(cs) cells; +1 nM R1881, 1 μM) was 32.00. The “NKX3.1 expression” value (LNCaP/AR(cs) cells; +1 nM R1881, 1 μM) was 9.92, the “NOV expression, antagonist transcription” value (LNCaP/AR(cs) cells; +1 nM R1881, 1 μM) was 0.09 and the “ORM1 expression” value (LNCaP/AR(cs) cells; +1 nM R1881, 1 μM) was 2679.73. For the same compound, the “PLD1 expression” value (LNCaP/AR(cs) cells; +1 nM R1881, 1 μM) was 0.02, the “PSA expression, antagonist transcription” value (LNCaP/AR(cs) cells; +1 nM R1881, 1 μM) was 21.75 and the “SLUG expression” value (LNCaP/AR(cs) cells; +1 nM R1881, 1 μM) was 62.00. The “STEAP4 expression” value (LNCaP/AR(cs) cells; +1 nM R1881, 1 μM) was 742.61, the “TMPRSS2 expression” value (LNCaP/AR(cs) cells; +1 nM R1881, 1 μM) was 24.11 and the “AMIGO2 expression” value (LNCaP/AR(cs) cells; +1 nM R1881, 3 μM) was 0.52. The “BDNF expression” value (LNCaP/AR(cs) cells; +1 nM R1881, 3 μM) was 0.67, the “CAM2KN1 expression” value (LNCaP/AR(cs) cells; +1 nM R1881, 3 μM) was 0.19 and the “FASN expression” value (LNCaP/AR(cs) cells; +1 nM R1881, 3 μM) was 1.08. The “FKBP5 expression” value (LNCaP/AR(cs) cells; +1 nM R1881, 3 μM) was 12.56, the “HPGD expression” value (LNCaP/AR(cs) cells; +1 nM R1881, 3 μM) was 32.19 and the “NCAPD3 expression” value (LNCaP/AR(cs) cells; +1 nM R1881, 3 μM) was 15.57. For the same compound, the “NKX3.1 expression” value (LNCaP/AR(cs) cells; +1 nM R1881, 3 μM) was 12.01, the “NOV expression, antagonist transcription” value (LNCaP/AR(cs) cells; +1 nM R1881, 3 μM) was 0.31 and the “ORM1 expression” value (LNCaP/AR(cs) cells; +1 nM R1881, 3 μM) was 1031.40. For the same compound, the “PLD1 expression” value (LNCaP/AR(cs) cells; +1 nM R1881, 3 μM) was 0.04, the “PSA expression, antagonist transcription” value (LNCaP/AR(cs) cells; +1 nM R1881, 3 μM) was 23.57 and the “SLUG expression” value (LNCaP/AR(cs) cells; +1 nM R1881, 3 μM) was 50.70. For the same compound, the “STEAP4 expression” value (LNCaP/AR(cs) cells; +1 nM R1881, 3 μM) was 256.89, the “TMPRSS2 expression” value (LNCaP/AR(cs) cells; +1 nM R1881, 3 μM) was 23.38 and the “AMIGO2 expression” value (LNCaP/AR(cs) cells; +1 nM R1881, 10 μM) was 0.60. For the same compound, the “BDNF expression” value (LNCaP/AR(cs) cells; +1 nM R1881, 10 μM) was 0.74, the “CAM2KN1 expression” value (LNCaP/AR(cs) cells; +1 nM R1881, 10 μM) was 0.43 and the “FASN expression” value (LNCaP/AR(cs) cells; +1 nM R1881, 10 μM) was 0.60. For the same compound, the “FKBP5 expression” value (LNCaP/AR(cs) cells; +1 nM R1881, 10 μM) was 2.74, the “HPGD expression” value (LNCaP/AR(cs) cells; +1 nM R1881, 10 μM) was 8.36 and the “NCAPD3 expression” value (LNCaP/AR(cs) cells; +1 nM R1881, 10 μM) was 2.39. For the same compound, the “NKX3.1 expression” value (LNCaP/AR(cs) cells; +1 nM R1881, 10 μM) was 7.22, the “NOV expression, antagonist transcription” value (LNCaP/AR(cs) cells; +1 nM R1881, 10 μM) was 0.86 and the “ORM1 expression” value (LNCaP/AR(cs) cells; +1 nM R1881, 10 μM) was 156.90. For the same compound, the “PLD1 expression” value (LNCaP/AR(cs) cells; +1 nM R1881, 10 μM) was 0.11, the “PSA expression, antagonist transcription” value (LNCaP/AR(cs) cells; +1 nM R1881, 10 μM) was 12.90 and the “SLUG expression” value (LNCaP/AR(cs) cells; +1 nM R1881, 10 μM) was 11.15. For the same compound, the “STEAP4 expression” value (LNCaP/AR(cs) cells; +1 nM R1881, 10 μM) was 32.98, the “TMPRSS2 expression” value (LNCaP/AR(cs) cells; +1 nM R1881, 10 μM) was 11.45 and the “AMIGO2 expression” value (LNCaP/AR(cs) cells; +1 nM R1881, 30 μM) was 0.76. For the same compound, the “BDNF expression” value (LNCaP/AR(cs) cells; +1 nM R1881, 30 μM) was 0.88, the “CAM2KN1 expression” value (LNCaP/AR(cs) cells; +1 nM R1881, 30 μM) was 0.42 and the “FASN expression” value (LNCaP/AR(cs) cells; +1 nM R1881, 30 μM) was 0.64. The “FKBP5 expression” value (LNCaP/AR(cs) cells; +1 nM R1881, 30 μM) was 1.08, the “HPGD expression” value (LNCaP/AR(cs) cells; +1 nM R1881, 30 μM) was 2.78 and the “NCAPD3 expression” value (LNCaP/AR(cs) cells; +1 nM R1881, 30 μM) was 0.96. For the same compound, the “NKX3.1 expression” value (LNCaP/AR(cs) cells; +1 nM R1881, 30 μM) was 5.49, the “NOV expression, antagonist transcription” value (LNCaP/AR(cs) cells; +1 nM R1881, 30 μM) was 0.82 and the “ORM1 expression” value (LNCaP/AR(cs) cells; +1 nM R1881, 30 μM) was 16.42. For the same compound, the “PLD1 expression” value (LNCaP/AR(cs) cells; +1 nM R1881, 30 μM) was 0.32, the “PSA expression, antagonist transcription” value (LNCaP/AR(cs) cells; +1 nM R1881, 30 μM) was 7.20 and the “SLUG expression” value (LNCaP/AR(cs) cells; +1 nM R1881, 30 μM) was 5.49. For the same compound, the “STEAP4 expression” value (LNCaP/AR(cs) cells; +1 nM R1881, 30 μM) was 6.86, the “TMPRSS2 expression” value (LNCaP/AR(cs) cells; +1 nM R1881, 30 μM) was 5.94 and the AMIGO2 gene expression (LNCaP/AR(cs) cells; [2]) was 0.72. For the same compound, the BDNF gene expression (LNCaP/AR(cs) cells; [2]) was 0.85, the CAM2KN1 gene expression (LNCaP/AR(cs) cells; [2]) was 0.80 and the FASN gene expression (LNCaP/AR(cs) cells; [2]) was 0.75. The FKBP5 gene expression (LNCaP/AR(cs) cells; [2]) was 0.99, the HPGD gene expression (LNCaP/AR(cs) cells; [2]) was 1.18 and the NCAPD3 gene expression (LNCaP/AR(cs) cells; [2]) was 0.91. For the same compound, the NKX3.1 gene expression (LNCaP/AR(cs) cells; [2]) was 1.13, the NOV gene expression (LNCaP/AR(cs) cells; [2]) was 1.04 and the ORM1 gene expression (LNCaP/AR(cs) cells; [2]) was 0.84. The PLD1 gene expression (LNCaP/AR(cs) cells; [2]) was 1.04 and the PSA gene expression (LNCaP/AR(cs) cells; [2]) was 1.43.
